4 compounds from ChEMBL document CHEMBL1136467, “A simple stereoselective synthesis and biological evaluation of FR181157: orally active prostacyclin mimetic” (Bioorg Med Chem Lett, 2003) can be followed below.

SMILES strings stand for the structures.

As usually defined, the IC50 is the concentration needed to halve the response being measured. The low end stands for greater potency, the high end for weaker potency. One may read the Cmax as the maximum level reached in the sampled fluid or tissue. Broadly, the Tmax is the time at which the peak concentration occurs. By AUC is commonly meant concentration integrated over time. A high value points to high exposure. For orientation: bioavailability means dose-corrected exposure relative to a reference, in per cent. Low values mean poor availability, high ones good availability. As usually defined, the Ki is the equilibrium dissociation constant of an inhibitor or competing ligand from its target.

The species named for one data set is Homo sapiens. The experiment in a line: In vitro inhibition of ADP-induced platelet aggregation using human platelet rich plasma. It is filed as functional.
Data set [1] can be described thus: Pharmacokinetic property (Cmax) was measured in rat at the dose of 0.32 mg/kg p.o. It is filed as ADME, organism-based. Also on record: dose 0.32 mg/kg, route oral. The following applies: in vivo, po.
A short description of data set [2]: Pharmacokinetic property (Tmax) was measured in dog at the dose of 0.032 mg/kg p.o. It counts as ADME, organism-based, Canis lupus familiaris. Also on record: dose 0.032 mg/kg, route oral. Particulars: in vivo, po.
Data set [3] can be described thus: Pharmacokinetic property (Tmax) was measured in rat at the dose of 0.32 mg/kg p.o. It counts as ADME, organism-based. Also on record: dose 0.32 mg/kg, route oral. The following applies: in vivo, po.
A short description of data set [4]: Pharmacokinetic property (t1/2beta) was measured in rat at the dose of 0.32 mg/kg i.v. The following applies: in vivo, iv, read-out: T1/2 beta (converted). It is filed as ADME, organism-based. Set-up: dose 0.32 mg/kg, route intravenous.
Data set [5] is described as follows: Pharmacokinetic property (AUC) was measured in rat at the dose of 0.32 mg/kg p.o. It is filed as ADME, organism-based. Set-up: dose 0.32 mg/kg, route oral. The following applies: in vivo, po.
Data set [6] can be described thus: Pharmacokinetic property (F) was measured in rat at the dose of 0.32 mg/kg. It is filed as ADME, organism-based. Also on record: dose 0.32 mg/kg. The following applies: in vivo.
Data set [7] is described as follows: Pharmacokinetic property (AUC) was measured in dog at the dose of 0.032 mg/kg p.o. It counts as ADME, organism-based, Canis lupus familiaris. Set-up: dose 0.032 mg/kg, route oral. The following applies: in vivo, po.
The nature of data set [8]: Pharmacokinetic property (t1/2beta) was measured in dog at the dose of 0.032 mg/kg i.v. It counts as ADME, organism-based, Canis lupus familiaris. The following applies: in vivo, iv, read-out: T1/2 beta (converted). Set-up: dose 0.032 mg/kg, route intravenous.
Data set [9] is described as follows: Pharmacokinetic property (F) was measured in dog at the dose of 0.032 mg/kg. It is filed as ADME, organism-based, Canis lupus familiaris. Set-up: dose 0.032 mg/kg. Particulars: in vivo.
For the next data set, the species on record is Canis familiaris. Nature of the data set: In vitro inhibition of ADP-induced platelet aggregation using dog platelet rich plasma. Particulars: Canis lupus familiaris. It counts as functional.
Another data set concerns the target Prostacyclin receptor (Homo sapiens, UniProt P43119). Nature of the data set: In vitro Prostacyclin (PGI-2) receptor binding assay was determined based on displacement of [3H]iloprost radioligand from cloned human IP receptor.
A short description of data set [10]: Pharmacokinetic property (Cmax) was measured in dog at the dose of 0.032 mg/kg. It is filed as ADME, organism-based, Canis lupus familiaris. Particulars: in vivo. Set-up: dose 0.032 mg/kg.
Data set [11] is described as follows: Pharmacokinetic property (CLtot) was measured in dog at the dose of 0.032 mg/kg i.v. Also on record: dose 0.032 mg/kg, route intravenous. It counts as ADME, organism-based, Canis lupus familiaris. Particulars: in vivo, iv, read-out: CLtotal.
For a further data set, the species on record is Rattus norvegicus. Nature of the data set: In vitro inhibition of ADP-induced platelet aggregation using rat platelet rich plasma. It is filed as functional.
Data set [12] is described as follows: Pharmacokinetic property (CLtot)of the compound was measured in rat at the dose of 0.32 mg/kg i.v. It is filed as ADME, organism-based. Set-up: dose 0.32 mg/kg, route intravenous. Particulars: in vivo, iv, read-out: CLtotal.

Prostacyclin receptor, sequence (P43119 whole entry): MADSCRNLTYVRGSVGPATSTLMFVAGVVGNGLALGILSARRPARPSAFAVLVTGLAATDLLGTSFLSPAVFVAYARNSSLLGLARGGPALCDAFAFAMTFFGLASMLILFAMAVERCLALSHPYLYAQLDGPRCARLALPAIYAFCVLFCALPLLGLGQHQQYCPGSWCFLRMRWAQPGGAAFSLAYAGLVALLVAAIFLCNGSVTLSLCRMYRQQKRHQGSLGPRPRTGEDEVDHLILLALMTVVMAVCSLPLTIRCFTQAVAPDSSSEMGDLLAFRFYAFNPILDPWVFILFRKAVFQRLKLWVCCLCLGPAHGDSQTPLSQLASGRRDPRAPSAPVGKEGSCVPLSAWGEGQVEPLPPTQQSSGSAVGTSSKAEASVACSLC

Consider `O=C(O)COc1cccc(CC2=C(c3nc(-c4ccccc4)c(-c4ccccc4)o3)CCCC2)c1`, for which half-maximal inhibition in the data set filed under Homo sapiens (IC50) was put at 0.53 µM. This counts as sub-micromolar.
Still for that read-out and setting: next, `CC#CCC(C)[C@H](O)/C=C/[C@@H]1[C@H]2C/C(=C/CCCC(=O)O)C[C@H]2C[C@H]1O` (some centres undefined) [ILOPROST]: 0.0025 µM; `O=C(O)COc1cccc(C[C@H]2CCCC=C2c2nc(-c3ccccc3)c(-c3ccccc3)o2)c1`: 0.11 µM.
Take `O=C([O-])COc1cccc(C[C@@H]2CCCC=C2c2nc(-c3ccccc3)c(-c3ccccc3)o2)c1.[Na+]`: the peak concentration (Cmax) in [1] was 16.4 ng/mL; in [10] it was 38.7 ng/mL. Besides, the Tmax in data set [2] is 2.3 h; in [3], 0.3 h. The half-life in data set [4] was 6.6 h; in data set [8] it was 26 h. For the same compound, the AUC in data set [5] came to 147 ng·h/mL; in data set [7] it was 392 ng·h/mL. The figures for the bioavailability in [6] and in data set [9] were 50% and 72%, respectively. The half-maximal inhibitory concentration (IC50) in the data set listed under Homo sapiens was 0.06 µM; in the data set listed under Canis familiaris, 1.3 µM; in the data set listed under Rattus norvegicus, 1.2 µM. At Prostacyclin receptor, this compound registered a Ki of 0.054 µM. Also, the clearance was determined as 1.09 mL/min/kg in [11] and 17.7 mL/min/kg in [12].
